In article PMC11930985 (Nature Communications, 2025):
“Also recorded” adds a separate entry of the source. Read-outs that look alike come from different tables or passages of the source.

Tested on: AML/MDS patients
Settings: for Fatal SAE: Adverse event / Fatal SAE: Grade / Fatal SAE: Relationship to Bemcentinib: per patient
Experimental: Safety assessments including standard clinical laboratory safety tests (hematology, biochemistry, coagulation, and urinalysis), physical examinations, vital signs (blood pressure, heart rate, respiration rate and temperature), and ECOG performance status were performed at baseline and throughout the study. Electrocardiograms were obtained at screening, Cycle 1 Day 1–4, 8, and 15, Cycle 2 Day 1, 8 and 15, at Day 1 of each cycle thereafter, (up to and including Cycle 15), and at Final Study Visit. QT prolongation was assessed using the Fridericia correction […] [34]. Severity of QTcF prolongation was defined as follows: Grade 1: maximum prolongation 450–480 ms; Grade 2: maximum prolongation 481-500 ms; Grade 3: ≥501 ms on at least two separate ECGs; Grade 4: ≥501 ms or >60 ms change from baseline, with Torsades de pointes, polymorphic ventricular tachycardia or signs/symptoms of serious arrythmia; Grade 5: Death.
Adverse events (AEs) were monitored starting at study enrolment until 28 days after end of treatment and graded according to the National Cancer Institute Common Terminology Criteria for Adverse Events (NCI-CTCAE) version 4.0. If drug-related toxicities continued beyond the follow-up period, patients were followed until all drug-related toxicities resolved to grade ≤1, stabilized or returned to baseline.

[1] = DE and LDAC cohorts combined (n = 72)

Nc1nc(Nc2ccc3c(c2)CC[C@@H](N2CCCC2)CC3)nn1-c1cc2c(nn1)-c1ccccc1CCC2 [Bemcentinib]
Fatal SAEs: cerebral hemorrhage [1]: 2 n
Fatal SAEs: pneumonia/fungal pneumonia [1]: 3 n
Fatal SAEs: sepsis/neutropenic sepsis [1]: 4 n
Fatal SAEs (DE cohort): 7
Actinomyces test positive, number of events (E) (human, in vivo): 1
Actinomyces test positive, patients affected (human, in vivo): 1 (2.8) n (%)
Anaemia, number of events (E) (human, in vivo): 4
Anaemia, patients affected (human, in vivo): 4 (11.1) n (%)
Anxiety, number of events (E) (human, in vivo): 2
Anxiety, patients affected (human, in vivo): 2 (5.6) n (%)
Back pain, number of events (E) (human, in vivo): 1
Back pain, patients affected (human, in vivo): 1 (2.8) n (%)
Blood and lymphatic system disorders (System Organ Class), number of events (E) (human, in vivo): 26
Blood and lymphatic system disorders (System Organ Class), patients affected (human, in vivo): 12 (33.3) n (%)
Cardiac disorders (System Organ Class), number of events (E) (human, in vivo): 10
Cardiac disorders (System Organ Class), patients affected (human, in vivo): 4 (11.1) n (%)
Decreased appetite, number of events (E) (human, in vivo): 2
Decreased appetite, patients affected (human, in vivo): 2 (5.6) n (%)
Dehydration, number of events (E) (human, in vivo): 1
Dehydration, patients affected (human, in vivo): 1 (2.8) n (%)
Device related infection, number of events (E) (human, in vivo): 1
Device related infection, patients affected (human, in vivo): 1 (2.8) n (%)
Diarrhoea, number of events (E) (human, in vivo): 6
Diarrhoea, patients affected (human, in vivo): 3 (8.3) n (%)
Dysgeusia, number of events (E) (human, in vivo): 1
Dysgeusia, patients affected (human, in vivo): 1 (2.8) n (%)
Dysphagia, number of events (E) (human, in vivo): 1
Dysphagia, patients affected (human, in vivo): 1 (2.8) n (%)
Dyspnoea exertional, number of events (E) (human, in vivo): 1
Dyspnoea exertional, patients affected (human, in vivo): 1 (2.8) n (%)
Dyspnoea, number of events (E) (human, in vivo): 1
Dyspnoea, patients affected (human, in vivo): 1 (2.8) n (%)
Enterococcal bacteraemia, number of events (E) (human, in vivo): 1
Enterococcal bacteraemia, patients affected (human, in vivo): 1 (2.8) n (%)
Enthesopathy, number of events (E) (human, in vivo): 1
Enthesopathy, patients affected (human, in vivo): 1 (2.8) n (%)
Epistaxis, number of events (E) (human, in vivo): 2
Epistaxis, patients affected (human, in vivo): 1 (2.8) n (%)
Fall, number of events (E) (human, in vivo): 1
Fall, patients affected (human, in vivo): 1 (2.8) n (%)
Fatigue, number of events (E) (human, in vivo): 4
Fatigue, patients affected (human, in vivo): 2 (5.6) n (%)
Gastrointestinal disorders (System Organ Class), number of events (E) (human, in vivo): 18
Gastrointestinal disorders (System Organ Class), patients affected (human, in vivo): 12 (33.3) n (%)
General disorders and administration site conditions (System Organ Class), number of events (E) (human, in vivo): 8
General disorders and administration site conditions (System Organ Class), patients affected (human, in vivo): 6 (16.7) n (%)
General physical health deterioration, number of events (E) (human, in vivo): 3
General physical health deterioration, patients affected (human, in vivo): 3 (8.3) n (%)
Gingivitis, number of events (E) (human, in vivo): 1
Gingivitis, patients affected (human, in vivo): 1 (2.8) n (%)
Haematuria, number of events (E) (human, in vivo): 1
Haematuria, patients affected (human, in vivo): 1 (2.8) n (%)
Hyperglycaemia, number of events (E) (human, in vivo): 4
Hyperglycaemia, patients affected (human, in vivo): 2 (5.6) n (%)
Hyperuricaemia, number of events (E) (human, in vivo): 2
Hyperuricaemia, patients affected (human, in vivo): 2 (5.6) n (%)
Hypoglycaemia, number of events (E) (human, in vivo): 1
Hypoglycaemia, patients affected (human, in vivo): 1 (2.8) n (%)
Hypokalaemia, number of events (E) (human, in vivo): 5
Hypokalaemia, patients affected (human, in vivo): 5 (13.9) n (%)
Hyponatraemia, number of events (E) (human, in vivo): 2
Hyponatraemia, patients affected (human, in vivo): 2 (5.6) n (%)
Hypophosphataemia, number of events (E) (human, in vivo): 3
Hypophosphataemia, patients affected (human, in vivo): 3 (8.3) n (%)
Hypotension, number of events (E) (human, in vivo): 3
Hypotension, patients affected (human, in vivo): 3 (8.3) n (%)
Hypoxia, number of events (E) (human, in vivo): 2
Hypoxia, patients affected (human, in vivo): 2 (5.6) n (%)
Infection, number of events (E) (human, in vivo): 2
Infection, patients affected (human, in vivo): 2 (5.6) n (%)
Infections and infestations (System Organ Class), number of events (E) (human, in vivo): 29
Infections and infestations (System Organ Class), patients affected (human, in vivo): 23 (63.9) n (%)
Injury, poisoning and procedural complications (System Organ Class), number of events (E) (human, in vivo): 1
Injury, poisoning and procedural complications (System Organ Class), patients affected (human, in vivo): 1 (2.8) n (%)
Investigations (System Organ Class), number of events (E) (human, in vivo): 8
Investigations (System Organ Class), patients affected (human, in vivo): 7 (19.4) n (%)
Lactic acidosis, number of events (E) (human, in vivo): 1
Lactic acidosis, patients affected (human, in vivo): 1 (2.8) n (%)
Leukocytosis, number of events (E) (human, in vivo): 1
Leukocytosis, patients affected (human, in vivo): 1 (2.8) n (%)
Melaena, number of events (E) (human, in vivo): 1
Melaena, patients affected (human, in vivo): 1 (2.8) n (%)
Mental status changes, number of events (E) (human, in vivo): 1
Mental status changes, patients affected (human, in vivo): 1 (2.8) n (%)
Metabolism and nutrition disorders (System Organ Class), number of events (E) (human, in vivo): 21
Metabolism and nutrition disorders (System Organ Class), patients affected (human, in vivo): 14 (38.9) n (%)
Musculoskeletal and connective tissue disorders (System Organ Class), number of events (E) (human, in vivo): 4
Musculoskeletal and connective tissue disorders (System Organ Class), patients affected (human, in vivo): 2 (5.6) n (%)
Nausea, number of events (E) (human, in vivo): 3
Nausea, patients affected (human, in vivo): 3 (8.3) n (%)
Nervous system disorders (System Organ Class), number of events (E) (human, in vivo): 3
Nervous system disorders (System Organ Class), patients affected (human, in vivo): 3 (8.3) n (%)
Neutropenia, number of events (E) (human, in vivo): 3
Neutropenia, patients affected (human, in vivo): 2 (5.6) n (%)
Number of TEAE, number of events (E) (human, in vivo): 148
Number of TEAE, patients affected (human, in vivo): 35 (97.2) n (%)
Oesophagitis, number of events (E) (human, in vivo): 1
Oesophagitis, patients affected (human, in vivo): 1 (2.8) n (%)
Osteitis, number of events (E) (human, in vivo): 1
Osteitis, patients affected (human, in vivo): 1 (2.8) n (%)
Patients with dose interruptions due to adverse events (human, in vivo): 17
Patients with dose reductions (human, in vivo): 3
Pharyngitis, number of events (E) (human, in vivo): 1
Pharyngitis, patients affected (human, in vivo): 1 (2.8) n (%)
Pneumonia, number of events (E) (human, in vivo): 8
Pneumonia, patients affected (human, in vivo): 8 (22.2) n (%)
Psychiatric disorders (System Organ Class), number of events (E) (human, in vivo): 3
Psychiatric disorders (System Organ Class), patients affected (human, in vivo): 3 (8.3) n (%)
Pulmonary congestion, number of events (E) (human, in vivo): 1
Pulmonary congestion, patients affected (human, in vivo): 1 (2.8) n (%)
Rash erythematous, number of events (E) (human, in vivo): 1
Rash erythematous, patients affected (human, in vivo): 1 (2.8) n (%)
Renal and urinary disorders (System Organ Class), number of events (E) (human, in vivo): 4
Renal and urinary disorders (System Organ Class), patients affected (human, in vivo): 2 (5.6) n (%)
Respiratory failure, number of events (E) (human, in vivo): 1
Respiratory failure, patients affected (human, in vivo): 1 (2.8) n (%)
Respiratory, thoracic and mediastinal disorders (System Organ Class), number of events (E) (human, in vivo): 9
Respiratory, thoracic and mediastinal disorders (System Organ Class), patients affected (human, in vivo): 6 (16.7) n (%)
Sepsis, number of events (E) (human, in vivo): 3
Sepsis, patients affected (human, in vivo): 3 (8.3) n (%)
Skin and subcutaneous tissue disorders (System Organ Class), number of events (E) (human, in vivo): 1
Skin and subcutaneous tissue disorders (System Organ Class), patients affected (human, in vivo): 1 (2.8) n (%)
Stomatitis, number of events (E) (human, in vivo): 1
Stomatitis, patients affected (human, in vivo): 1 (2.8) n (%)
Streptococcal bacteraemia, number of events (E) (human, in vivo): 1
Streptococcal bacteraemia, patients affected (human, in vivo): 1 (2.8) n (%)
Supraventricular tachycardia, number of events (E) (human, in vivo): 1
Supraventricular tachycardia, patients affected (human, in vivo): 1 (2.8) n (%)
Syncope, number of events (E) (human, in vivo): 1
Syncope, patients affected (human, in vivo): 1 (2.8) n (%)
TEAE leading to Discontinuation (human, in vivo): 4 n (%)
Thrombocytopenia, number of events (E) (human, in vivo): 7
Thrombocytopenia, patients affected (human, in vivo): 5 (13.9) n (%)
Toothache, number of events (E) (human, in vivo): 1
Toothache, patients affected (human, in vivo): 1 (2.8) n (%)
Urethral haemorrhage, number of events (E) (human, in vivo): 1
Urethral haemorrhage, patients affected (human, in vivo): 1 (2.8) n (%)
Urinary incontinence, number of events (E) (human, in vivo): 1
Urinary incontinence, patients affected (human, in vivo): 1 (2.8) n (%)
Vascular disorders (System Organ Class), number of events (E) (human, in vivo): 3
Vascular disorders (System Organ Class), patients affected (human, in vivo): 3 (8.3) n (%)
Viral infection, number of events (E) (human, in vivo): 1
Viral infection, patients affected (human, in vivo): 1 (2.8) n (%)
Vomiting, number of events (E) (human, in vivo): 2
Vomiting, patients affected (human, in vivo): 2 (5.6) n (%)
Oral pain, number of events (E) (human, in vivo, po): 1
Oral pain, patients affected (human, in vivo, po): 1 (2.8) n (%)
Eye toxicity of grade ≥3 (in vivo): Only a single event
Retinal toxicities (in vivo): no evidence for retinal toxicities
Tolerability (in vivo): well-tolerated
Fatal SAE: Adverse event (Dose escalation 400 mg/100 mg): Neutropenic sepsis
Fatal SAE: Grade (Dose escalation 400 mg/100 mg): 5
Fatal SAE: Relationship to Bemcentinib (Dose escalation 400 mg/100 mg): Unrelated
Fatal SAE: Adverse event (Dose escalation 400 mg/200 mg): Multi-organ failure; also recorded: Pneumonia fungal; also recorded: Cerebral haemorrhage
Fatal SAE: Grade (Dose escalation 400 mg/200 mg): 5
Fatal SAE: Relationship to Bemcentinib (Dose escalation 400 mg/200 mg): Unrelated; also recorded: Unlikely related
Fatal SAE: Adverse event (Dose escalation 600 mg/200 mg): Pneumonia; also recorded: Sepsis
Fatal SAE: Grade (Dose escalation 600 mg/200 mg): 5
Fatal SAE: Relationship to Bemcentinib (Dose escalation 600 mg/200 mg): Unrelated
